The structures appear in SMILES notation. Like-named read-outs stand apart in the source and are kept apart here.

Experiment [1] has as its target T1, Kv7.3 A315T (Homo sapiens, UniProt O43525, A315T).
T1 construct: expressed in transfected cells; host or cells: CHO, transient
The experiment is described as follows: fluorescence-based thallium flux assay (FluxOR) in CHO cells stably transfected with Kv7.3 A315T. Format: cell-based. As to conditions: for maximum activities: relative to retigabine. The source says:
The Fraunhofer repurposing library was initially screened in a cellular model represented by Chinese hamster ovary cells (CHO) stably transfected with a variant of the Kv7.3 channel (carrying the mutation A315T to enhance current size and increase the signal-to-noise ratio). The Kv7.3 A315T cell line was used in a fluorescence-based thallium flux assay (FluxOR, Thermofisher) optimized as a read-out for Kv7 channel function, using retigabine as a positive control.
Compounds in the Fraunhofer repurposing library were tested in Kv7.3 A315T-expressing cells at 10 µM and their Kv7 opening effect was compared to that observed with 10 µM retigabine.

Experiment [2] deals with T1, Kv7.3 A315T. Description: whole-cell patch-clamp in CHO cells transiently transfected with Kv7.3 A315T cDNA. Format: cell-based. The procedure:
(§1) JNJ-37822681 efficacy in opening Kv7 channels was further investigated through the whole-cell patch-clamp electrophysiological technique, the gold standard technique for investigating ion channels activity and pharmacological modulation.
In order to better evaluate the quantitative differences occurring in Kv7-opening ability between retigabine, and JNJ-37822681, dose-response experiments (0.01-30 µM) were performed to calculate EC50s using the functional parameters of ΔV1/2 (Figure 1C).
For orientation: Patch clamp records ionic current or voltage across a cell membrane.

Experiment [3] addresses T2, Kv7.2+Kv7.3 channels (Homo sapiens, UniProt O43525+O43526).
T2 construct: expressed in transfected cells; host or cells: CHO
Description: whole-cell patch-clamp in CHO cells expressing Kv7.2+Kv7.3 channels. As to conditions: calculated from dose-response curves, Kv7.2/7.3 currents. The class given is cell-based.
Excerpt: as §1

Experiment [4] addresses T3, Kv7.2 channels carrying the W236L mutation (Homo sapiens, UniProt O43526, W236L).
T3 construct: expressed in transfected cells
Description: patch-clamp on homomeric Kv7.2 channels carrying the W236L mutation. The class given is cell-based. As to conditions: 10 µM.

Experiment [5] deals with PTZ-induced seizures. Description: PTZ-induced seizures in mice. Format: in vivo, C57BL/6J mice. Particulars: for ED50: Mus musculus, ip; for ED50 Values (mg/Kg) Clonus / ED50 Values (mg/Kg) Tonus: i.p. The procedure:
(§2) JNJ-37822681 was tested in two animal models of acute seizures widely used for the evaluation of new ASMs: 1. a mouse model of generalized myoclonic seizures such as acute exposure to the GABAA receptor antagonist pentylenetetrazol (PTZ); 2. audiogenic seizures induced in genetically epilepsy-prone DBA/2 mice.
(§3) In both animal models, retigabine or JNJ-37822681 were administered i.p, 30 minutes before seizures induction with PTZ or sounds.

The test system of experiment [6] is audiogenic seizures. Description: audiogenic seizures in DBA/2 mice. Format: in vivo. Particulars: limits in brackets; for ED50: Mus musculus, ip; for ED50 Values (mg/Kg) Clonus / ED50 Values (mg/Kg) Tonus / ED50 Values (mg/Kg) Wild Running: i.p. The procedure:
as §2, §3

[7] abbreviates: 30 minutes before seizures induction with PTZ, limits in brackets.
Setting [8] is: 30 minutes before seizures induction with sounds.

A word on the EC50: it is the concentration at which the effect is half-maximal. With `Fc1ccc(CN2CCC(Nc3ccc(C(F)(F)F)nn3)CC2)cc1F` [JNJ-37822681, N-[1-[(3,4-difluorophenyl)methyl]-4-piperidinyl]-6-(trifluoromethyl)-3-pyridazinamine], the maximum activities in experiment [1] (FluxOR assay) is listed as 83.8%. The EC50 in experiment [1] (FluxOR assay, ten-point dose-response curve from 0.5 nM to 10 µM, read-out: EC50) was 140 nM; in experiment [2] (calculated from ΔV1/2, dose-response 0.01-30 µM, read-out: EC50), 2000 ± 30 nM; in experiment [3], 1200 ± 300 nM. Also, the “maximal ΔV1/2” value in experiment [2] (dose-response 0.01-30 µM) came out at 37.0±5.4 mV. Moreover, the “leftward shift of the channel voltage-dependence of activation (ΔV1/2)” value in experiment [2] (perfusion with 1 µM) was “qualitatively similar effects”. For the same compound, in experiment [4], the “activation of Kv7.2 channels carrying the W236L mutation” value is reported as “failed to activate”. For the same compound, the ED50 in experiment [5] (30 minutes before seizures induction with PTZ, limits in brackets, read-out: ED50 Values (mg/Kg) Clonus) worked out at 15 mg/kg; in experiment [5] (30 minutes before seizures induction with PTZ, limits in brackets, read-out: ED50 Values (mg/Kg) Tonus), 9 mg/kg; in experiment [6] (30 minutes before seizures induction with sounds, read-out: ED50 Values (mg/Kg) Clonus) it was 6 mg/kg; in experiment [6] (30 minutes before seizures induction with sounds, read-out: ED50 Values (mg/Kg) Tonus) it was 3 mg/kg; in experiment [6] (30 minutes before seizures induction with sounds, read-out: ED50 Values (mg/Kg) Wild Running) it was 11 mg/kg. The entries for the “ED50 Values (mg/Kg) Clonus” value in experiment [5] (setting [7]) and in experiment [6] (setting [8]) were 15 (12-18) mg/Kg and 6 (5-9) mg/Kg, respectively. Also, the “ED50 Values (mg/Kg) Tonus” value in experiment [5] (setting [7]) is reported as 9 (6-13) mg/Kg; in experiment [6] (setting [8]), 3 (2-5) mg/Kg. In addition, in experiment [6] (setting [8]), the “ED50 Values (mg/Kg) Wild Running” value is on record as 11 (8-13) mg/Kg.

Regarding `CCOC(=O)Nc1ccc(NCc2ccc(F)cc2)cc1N` [retigabine, reference compound], the figures for the EC50 in experiment [1] and in experiment [2] were 300 nM and 600 ± 100 nM, respectively. Further, in experiment [1] (FluxOR assay), the maximum activities is 100%. Moreover, the ED50 in experiment [5] (read-out: ED50 Values (mg/Kg) Clonus) came out at 13 mg/kg; in experiment [5] (read-out: ED50 Values (mg/Kg) Tonus), 9 mg/kg; in experiment [6] (read-out: ED50 Values (mg/Kg) Clonus, i.p., 30 minutes before seizures induction with sounds) it was 7 mg/kg; in experiment [6] (read-out: ED50 Values (mg/Kg) Tonus, i.p., 30 minutes before seizures induction with sounds), 4.6 mg/kg; in experiment [6] (read-out: ED50 Values (mg/Kg) Wild Running, i.p., 30 minutes before seizures induction with sounds), 12 mg/kg. The results for the “ED50 Values (mg/Kg) Clonus” value in experiment [5] (setting [7]) and in experiment [6] (setting [8]) were 13 (9.2-18.5) mg/Kg and 6.9 (4.3-11) mg/Kg, respectively. The “ED50 Values (mg/Kg) Tonus” value in experiment [5] (setting [7]) was 9 (7-12) mg/Kg; in experiment [6] (setting [8]), 4.6 (3.6-6) mg/Kg. In experiment [6] (setting [8]), the “ED50 Values (mg/Kg) Wild Running” value is on record as 12.4 (9-17.3) mg/Kg.

The record behind these values is patent EP4574152A1, “POTASSIUM CHANNEL ACTIVATORS FOR USE IN THE TREATMENT OF EPILEPTIC DISORDERS” (Fraunhofer-Gesellschaft zur Förderung der angewandten …, priority 2023, dated 2025).
